According to ChEMBL document CHEMBL1201862, “PubChem BioAssay data set” (2004):
Values joined by “and” are separate entries in the source; they are usually repeats but may differ in a detail not shown here. Equal values may be shown once.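 48-hour exposure; five concentrations; linearly interpolated endpoints. The concentration for 50% growth inhibition is given as GI50.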 Active and inactive are the calls of the source. No stated cut-off is given here; in the data, active = GI50 up to about 1.1 µM and inactive = higher.

What was measured:
Test in all cases: NCI-60 cell line screen, 48 h
[1] = system: RXF 393
[2] = system: SW-620
[3] = system: OVCAR-3
[4] = system: HCT-15
[5] = system: NCI-H226
[6] = system: MDA-MB-435
[7] = system: MOLT-4
[8] = system: MDA-N
[9] = system: HCT-116
[10] = system: U-251
[11] = system: DU-145
[12] = system: NCI-H23
[13] = system: SK-MEL-2
[14] = system: UACC-257
[15] = system: HCC 2998
[16] = system: Malme-3M
[17] = system: RPMI-8226
[18] = system: M14
[19] = system: EKVX
[20] = system: HT-29

SMILES: O=C(CCC(=O)c1ccsc1)c1ccsc1
- GI50 [1]: > 100 µM (inactive)
- GI50 [2]: > 100 µM (inactive)
- GI50 [3]: > 100 µM (inactive)
- GI50 [4]: > 100 µM
- GI50 [5]: > 100 µM (inactive)
- GI50 [6]: > 100 µM (inactive)
- GI50 [7]: > 100 µM (inactive)
- GI50 [8]: > 100 µM (inactive)
- GI50 [9]: > 100 µM (inactive)
- GI50 [10]: > 100 µM (inactive)
- GI50 [11]: > 100 µM (inactive)
- GI50 [12]: > 100 µM (inactive)
- GI50 [13]: > 100 µM (inactive)
- GI50 [14]: > 100 µM (inactive)
- GI50 [15]: > 100 µM (inactive)
- GI50 [16]: > 100 µM (inactive)
- GI50 [17]: > 100 µM (inactive)
- GI50 [18]: > 100 µM (inactive)

SMILES: CCOC(=O)C1=C(C)C2C=C(c3cccs3)CC(c3ccc(Cl)cc3)=C2OC1=O (stereo not drawn)
- GI50 [1]: 84.5 µM (inactive)
- GI50 [2]: 65 µM (inactive)
- GI50 [3]: 24.7 µM (inactive)
- GI50 [4]: 16.8 µM
- GI50 [19]: 31 µM (inactive)
- GI50 [5]: 21 µM (inactive)
- GI50 [6]: 42.4 µM (inactive)
- GI50 [20]: 30 µM (inactive)
- GI50 [7]: 6.07 µM (inactive)
- GI50 [8]: 37.9 µM (inactive)
- GI50 [9]: 7.43 µM (inactive)
- GI50 [10]: 33.3 µM (inactive)
- GI50 [11]: 29.9 µM (inactive)
- GI50 [12]: 71.1 µM (inactive)
- GI50 [13]: > 100 µM (inactive)
- GI50 [14]: 17.7 µM (inactive)
- GI50 [15]: 22.5 µM (inactive)
- GI50 [17]: 7.59 µM (inactive)
- GI50 [18]: 58.3 µM (inactive)

SMILES: CC(c1ccccc1)n1c2ccccc2c2c(N)ncnc21 (stereo not drawn)
- GI50 [1]: 18.3 µM (inactive)
- GI50 [2]: 22.6 µM (inactive)
- GI50 [3]: 16.2 µM (inactive)
- GI50 [4]: 23.4 µM
- GI50 [19]: 10.8 µM (inactive)
- GI50 [6]: 16.9 µM (inactive)
- GI50 [20]: 17.3 µM (inactive)
- GI50 [7]: 23 µM (inactive)
- GI50 [8]: 22.6 µM (inactive)
- GI50 [9]: 21.5 µM (inactive)
- GI50 [10]: 16.7 µM (inactive)
- GI50 [11]: 18.6 µM (inactive)
- GI50 [12]: 20.4 µM (inactive)
- GI50 [13]: 23.7 µM (inactive)
- GI50 [14]: 17.2 µM (inactive)
- GI50 [15]: 18.2 µM (inactive)
- GI50 [16]: 21.2 µM (inactive)
- GI50 [17]: 42.4 µM (inactive)
- GI50 [18]: 18.8 µM (inactive)

SMILES: CCOC(=O)Cc1cc(=O)[nH]c(-n2[nH]c(C)c(CCO)c2=O)n1
- GI50 [1]: > 100 µM (inactive)
- GI50 [2]: > 100 µM (inactive)
- GI50 [3]: > 100 µM (inactive)
- GI50 [4]: > 100 µM
- GI50 [19]: > 100 µM (inactive)
- GI50 [5]: > 100 µM (inactive)
- GI50 [6]: > 100 µM (inactive)
- GI50 [20]: > 100 µM (inactive)
- GI50 [8]: > 100 µM (inactive)
- GI50 [9]: > 100 µM (inactive)
- GI50 [10]: > 100 µM (inactive)
- GI50 [11]: > 100 µM (inactive)
- GI50 [12]: > 100 µM (inactive)
- GI50 [13]: > 100 µM (inactive)
- GI50 [14]: > 100 µM (inactive)
- GI50 [15]: > 100 µM (inactive)
- GI50 [16]: > 100 µM (inactive)
- GI50 [17]: > 100 µM (inactive)
- GI50 [18]: > 100 µM (inactive)

SMILES: CC(=O)O[C@H]1C(=O)[C@@]2(C)[C@H]([C@H](OC(=O)c3ccccc3)[C@]3(O)C[C@H](OC(=O)[C@H](O)[C@@H](NC(=O)c4ccccc4)c4ccccc4)C(C)=C1C3(C)C)[C@]1(OC(C)=O)CO[C@@H]1C[C@@H]2O [PACLITAXEL]
- GI50 [1]: 0.00649 µM (active)
- GI50 [2]: 0.00326 µM (active)
- GI50 [6]: 0.00395 µM (active)
- GI50 [20]: 0.00273 µM (active)
- GI50 [8]: 0.00307 µM (active)
- GI50 [9]: 0.00268 µM (active)
- GI50 [10]: 0.00384 µM (active)
- GI50 [11]: 0.0239 µM (active)
- GI50 [12]: 0.00396 µM (active)
- GI50 [15]: 0.00341 µM (active)
- GI50 [16]: 0.029 µM (active)
- GI50 [17]: 0.00267 µM (active)
- GI50 [18]: 0.0229 µM (active)

SMILES: O=C1CCC2CCC1C2 (stereo not drawn)
- GI50 [1]: 96.4 µM (inactive)
- GI50 [3]: > 100 µM (inactive)
- GI50 [4]: > 100 µM
- GI50 [5]: > 100 µM (inactive)
- GI50 [6]: > 100 µM (inactive)
- GI50 [20]: > 100 µM (inactive)
- GI50 [7]: > 100 µM (inactive)
- GI50 [8]: > 100 µM (inactive)
- GI50 [9]: > 100 µM (inactive)
- GI50 [10]: > 100 µM (inactive)
- GI50 [11]: > 100 µM (inactive)
- GI50 [12]: > 100 µM (inactive)
- GI50 [13]: > 100 µM (inactive)
- GI50 [14]: > 100 µM (inactive)
- GI50 [15]: > 100 µM (inactive)
- GI50 [16]: > 100 µM (inactive)
- GI50 [17]: > 100 µM (inactive)
- GI50 [18]: > 100 µM (inactive)

SMILES: COC1C(OC(C)=O)CC(=O)OC(C)C/C=C/C=C\C(O)C(C)CC(CC=O)C1OC1OC(C)C(OC2CC(C)(O)C(OC(=O)CC(C)C)C(C)O2)C(N(C)C)C1O (stereo not drawn)
- GI50 [1]: 82 µM (inactive)
- GI50 [2]: > 100 µM (inactive)
- GI50 [3]: > 100 µM (inactive) and 96.8 µM (inactive)
- GI50 [5]: > 100 µM (inactive)
- GI50 [6]: 51.1 µM (inactive)
- GI50 [20]: > 100 µM (inactive) and 67.9 µM (inactive)
- GI50 [8]: 61.2 µM (inactive)
- GI50 [9]: > 100 µM (inactive)
- GI50 [10]: > 100 µM (inactive)
- GI50 [11]: 97.9 µM (inactive)
- GI50 [12]: > 100 µM (inactive)
- GI50 [13]: > 100 µM (inactive)
- GI50 [14]: 66.5 µM (inactive) and 70.1 µM (inactive)
- GI50 [15]: > 100 µM (inactive)
- GI50 [16]: > 100 µM (inactive)
- GI50 [17]: > 100 µM (inactive) and 58.2 µM (inactive)
- GI50 [18]: 89.3 µM (inactive) and 57.5 µM (inactive)
